Test [1] addresses T1, Corticotropin-releasing factor receptor 2/Corticotropin-releasing factor-binding protein (Homo sapiens, UniProt P24387+Q13324).
T1 sequence (Q13324 whole entry): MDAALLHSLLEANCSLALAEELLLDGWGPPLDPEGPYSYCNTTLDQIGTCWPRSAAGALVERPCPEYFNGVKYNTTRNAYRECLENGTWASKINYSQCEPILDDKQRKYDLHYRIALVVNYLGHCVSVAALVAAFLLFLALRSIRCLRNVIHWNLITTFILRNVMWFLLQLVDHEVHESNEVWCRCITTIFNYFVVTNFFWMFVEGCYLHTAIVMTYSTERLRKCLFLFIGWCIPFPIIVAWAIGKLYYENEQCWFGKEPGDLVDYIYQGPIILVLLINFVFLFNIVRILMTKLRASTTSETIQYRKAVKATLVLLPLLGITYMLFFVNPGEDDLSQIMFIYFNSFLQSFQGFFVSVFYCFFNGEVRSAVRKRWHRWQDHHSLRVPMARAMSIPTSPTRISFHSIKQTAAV
T1 sequence (P24387 whole entry): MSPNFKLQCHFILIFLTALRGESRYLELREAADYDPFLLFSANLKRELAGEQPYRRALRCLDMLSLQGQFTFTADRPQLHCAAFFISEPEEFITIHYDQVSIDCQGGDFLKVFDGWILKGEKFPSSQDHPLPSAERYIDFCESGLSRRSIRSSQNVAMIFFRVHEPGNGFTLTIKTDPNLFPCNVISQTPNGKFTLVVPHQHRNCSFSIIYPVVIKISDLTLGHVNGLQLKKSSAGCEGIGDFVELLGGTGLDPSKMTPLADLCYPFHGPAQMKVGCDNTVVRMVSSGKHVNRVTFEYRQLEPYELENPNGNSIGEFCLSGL
As to the kind of experiment: Dose Response confirmation of uHTS hits for small molecule antagonists of the CRF-binding protein and CRF-R2 receptor complex. Type of test: functional. As to conditions: read-out: IC50_Mean.

Test [2] addresses T1, Corticotropin-releasing factor receptor 2/Corticotropin-releasing factor-binding protein. The test can be described thus: activators of CRF receptor 2 with binding protein – uHTS hits, confirmation (AID 602473). Type of test: functional. As to conditions: read-out: EC50_Mean.
The target in test [3] is Cytochrome P450 3A4 (Homo sapiens, UniProt P08684).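 Note: CYP3A4 tested as one member of a cytochrome P450 panel screen.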
Test [4] relates to INS1. As to the kind of experiment: INS-1E survival protection against cytokine death – cell-based, luminescence, retest, dose response (AID 449756).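 Note: cell death triggered by IL-1 beta plus TNF-alpha plus IFN-gamma mixture; protective hits raise ATP signal compared with cytokine alone wells.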 As to conditions: Rattus norvegicus, INS1. Type of test: functional.
A short description of test [5]: luciferase reporter signal suppression in cells – H4 neuroglioma cells, luminescence, dose response (AID 1990). The format is functional, cell-based.
The nature of test [6]: Luminescence Cell-Based Dose Response HTS to Identify Inhibitors of 5'UTR Stem-Loop Driven Prion Protein mRNA Translation in H4 Neuroglioblastoma Cells. [Related pubchem assays: 1827 (Project Summary), 1813 (Primary HTS)]. The format is functional.
Test [7] can be described thus: alpha-synuclein stem-loop luciferase translation blockers – H4 neuroglioma cells, luminescence, confirmation (AID 1988). The format is functional, cell-based.
In test [8] the test system is Streptococcus sp. 'group A'. As to the kind of experiment: Streptococcus pyogenes SK(-)GAS viability under kanamycin – luminescence, BacTiterGlo, confirmation, counter-screen for streptokinase expression inhibitor project, dose response (AID 1900). The format is functional, organism-based.
Test [9] addresses T2, Streptokinase A (Streptococcus pyogenes serotype M1, UniProt P10520).
T2 sequence (P10520 whole entry): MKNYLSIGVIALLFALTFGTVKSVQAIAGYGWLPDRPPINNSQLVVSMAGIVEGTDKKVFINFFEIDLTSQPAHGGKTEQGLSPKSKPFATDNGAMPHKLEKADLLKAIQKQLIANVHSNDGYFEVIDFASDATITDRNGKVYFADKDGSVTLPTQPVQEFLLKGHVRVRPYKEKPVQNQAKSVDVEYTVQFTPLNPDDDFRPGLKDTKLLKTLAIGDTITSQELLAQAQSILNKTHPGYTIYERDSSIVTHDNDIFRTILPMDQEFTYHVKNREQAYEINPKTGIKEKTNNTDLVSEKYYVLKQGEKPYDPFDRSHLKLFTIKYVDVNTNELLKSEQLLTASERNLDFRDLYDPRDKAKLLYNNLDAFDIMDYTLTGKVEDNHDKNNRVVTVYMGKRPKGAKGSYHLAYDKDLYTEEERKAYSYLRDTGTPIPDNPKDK
As to the kind of experiment: viability-normalized secreted streptokinase activity reduction – plasminogen activation absorbance, OD405, dose response (AID 1914).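 Note: secreted streptokinase activity via plasminogen activation per viability signal from cell pellet.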 Type of test: functional, Streptococcus pyogenes M1 GAS.

Test [10] has as its system Streptococcus. As to the kind of experiment: GAS UMAA2166 growth inhibition – luminescence, BacTiterGlo, counter-screen for streptokinase expression inhibitor project, dose response (AID 1915).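 Note: potency for reduction of bacterial viability or growth.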 The format is functional, organism-based.
The nature of test [11]: Trypanosoma cruzi growth suppression in host cells – NIH3T3 host cells, beta-gal luminescence, confirmation (AID 2044).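 Note: intracellular parasites grown in NIH/3T3 mouse fibroblasts as host cells; luminescent beta-galactosidase reporter signal from transgenic T. cruzi replicating inside host cells; inhibitors lower the luminescence signal.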 Type of test: functional, cell-based.
Test [12] can be described thus: NIH3T3 cell viability loss – ATP luminescence, mouse fibroblasts, counter-screen, dose response (AID 2010).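 Note: cells exposed to compound for about 90 hours before reading.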 The format is functional, cell-based.

For 40 molecules, IC50, EC50 and AC50 results are on record in ChEMBL document CHEMBL1201862, “PubChem BioAssay data set” (2004).

Active and inactive are the calls of the source. Cut-off read from the data, not from the text of the source, for most assays here: actives have a measured EC50 and inactives only a lower limit.

Cytochrome P450 3A4, sequence (P08684 whole entry): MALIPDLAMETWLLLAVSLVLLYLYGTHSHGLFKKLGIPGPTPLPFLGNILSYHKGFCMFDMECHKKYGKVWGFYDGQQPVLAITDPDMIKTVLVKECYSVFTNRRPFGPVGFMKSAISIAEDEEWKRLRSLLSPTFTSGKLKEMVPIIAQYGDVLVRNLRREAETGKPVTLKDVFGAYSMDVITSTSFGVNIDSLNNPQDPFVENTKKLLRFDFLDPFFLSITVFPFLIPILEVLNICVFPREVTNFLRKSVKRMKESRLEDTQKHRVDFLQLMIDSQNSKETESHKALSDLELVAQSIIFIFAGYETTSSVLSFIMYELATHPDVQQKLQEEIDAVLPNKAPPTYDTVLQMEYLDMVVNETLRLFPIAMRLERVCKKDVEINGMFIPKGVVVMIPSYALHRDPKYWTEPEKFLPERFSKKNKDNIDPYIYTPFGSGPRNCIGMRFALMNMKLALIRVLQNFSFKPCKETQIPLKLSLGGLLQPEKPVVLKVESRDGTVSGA

Turning to `O=C1CC(Nc2cc(O)nc(O)n2)C(=O)N1c1ccccc1Cl` (configuration not stated), the IC50 in test [1] was > 47.1 µM (inactive). Moreover, in [2], the EC50 was > 53 µM (inactive).

As to `C[C@@H]1O[C@@H]2C3=C(C(=O)[C@H]4O[C@@H]4[C@H]3O)C1[C@@H]1[C@@H](C)OC=C3[C@H](O)[C@H]4O[C@@H]4/C(=N\OCc4ccccc4)[C@@]321`, the AC50 in [3] is 6.31 µM (inconclusive).

With `O=[N+]([O-])c1cc(C(F)(F)F)ccc1NCCCCNS(=O)(=O)c1ccc(Cl)cc1`, in [4], the AC50 was 6.5 µM (active).

Turning to `CNC(=O)[C@@H]1O[C@@H](n2cnc3c(NCc4cccc(I)c4)ncnc32)[C@H](O)[C@@H]1O`, the AC50 in test [3] is 39.8 µM (inconclusive).

For the molecule `O=C(NCC1OCCc2ccccc21)c1ccc(NC(=O)c2ccc(Cl)cc2)cc1` (configuration not stated), the EC50 is > 120 µM (not active) in [5], 14.2 µM (active) in test [6] and 12.5 µM (active) in test [7].

As to `CC/C(C)=C1\SC(N2CCN(c3cccc(C(F)(F)F)c3)CC2)=NC1=O`, the EC50 in [5] is 19.9 µM (active); in test [6] it was > 120 µM (not active); in test [7], > 120 µM (not active).

On to `CC(NC(=O)COC(=O)C12CC3CC(CC(Br)(C3)C1)C2)c1ccccc1` (configuration not stated), for which, in test [1], the IC50 was > 47.1 µM (inactive). In addition, the EC50 in [2] was > 53 µM (inactive).

Regarding `Cc1ccc(C(=O)NCCSc2ccccc2)cc1S(=O)(=O)Nc1ccccc1`, the EC50 is 29.3 µM (active) in [5], 23.3 µM (active) in test [6] and > 120 µM (not active) in test [7].

Take `CCOc1ccc(NC(=S)N2CCc3cc(OC)c(OC)cc3C2COc2ccc3c(C)cc(=O)oc3c2)cc1` (configuration not stated): the EC50 was 30.4 µM (active) in test [5], 39.9 µM (active) in test [6] and > 120 µM (not active) in test [7].

Take `COc1cccc(/C=N/NC(=O)c2c(-c3ccccc3)noc2C)c1O`: the AC50 in test [4] is 2.5 µM (active).

On to `O=C(C1CCCCC1)N1CCC(c2nc(O)c3nnn(Cc4c(F)cccc4Cl)c3n2)CC1`, for which the EC50 in [8] was 4.19 µM (active); in test [9] it was > 150 µM (not active); in test [10], 9.82 µM (active).

For the molecule `C/C(=N\Nc1nc(C)cc(-c2ccccc2)n1)c1ccc(F)cc1`, in test [4], the AC50 is 3.13 µM (active).

`CC1(C)CC(=O)C=C(Nc2ccc(Br)cn2)C1`: the EC50 in [5], in test [6] and in [7] was > 120 µM (not active) throughout.

On to `Cc1cc(C(=O)NCC(=O)OC(C(=O)Nc2cc(C(F)(F)F)ccc2Cl)c2ccccc2)ccc1[N+](=O)[O-]` (configuration not stated), for which the EC50 in test [8], in test [9] and in test [10] was > 150 µM (not active) throughout.

`CCCCCCc1ccc(N2C[C@H](Cc3ccccc3)[C@@H](CC(=O)Nc3ccccc3)C2=O)cc1`: the AC50 in test [4] is 14.2 µM (active).

As to `Cc1ccc(NC(=N)Nc2nc(C)cc(C)n2)cc1`, the EC50 in test [2] was 9.85 µM (active).

For the molecule `CO[C@H]1COC(=O)C/C=C\[C@H](C)COC(=O)[C@@H](OCc2ccccc2)/C=C\[C@@H]1C`, the AC50 in test [3] is 3.98 µM (inconclusive).

Consider `COc1cc([C@@H]2c3cc4c(cc3[C@@H](O)[C@@H](CO)[C@@H]2CO)OCO4)cc(OC)c1O[Si](C)(C)C(C)(C)C`, for which the values for the EC50 in test [5], in test [6] and in [7] were 15.9 µM (active), 39.1 µM (active) and 11.5 µM (active), respectively.

Regarding `COc1cccc(NC(=O)NCCCCc2ccccc2)c1`, the EC50 in [8] is > 150 µM (not active); in [9] it was 106 µM (active); in test [10], > 150 µM (not active).

With `Sc1nnc(-c2cc(-c3ccccc3)[nH]n2)n1/N=C/c1ccc(Cl)cc1`, the figures for the EC50 in [8], in test [9] and in test [10] were 18 µM (active), > 150 µM (not active) and 21.4 µM (active), respectively.

Take `CCc1ccccc1NC(=S)NCCSc1ccc(Cl)cc1`: the EC50 in [9] is 30.5 µM (active).

Turning to `N=c1nc(N)nc2n1NC(c1ccc(F)cc1)=CS2`, the EC50 in test [5] was > 120 µM (not active); in [6], > 120 µM (not active); in test [7], 13.7 µM (active).

Consider `O=C(COC(=O)Cc1cn2ccsc2n1)Nc1nc2ccccc2s1`, for which the EC50 is 2.64 µM (active) in [8], > 150 µM (not active) in [9] and 6.72 µM (active) in test [10].

Turning to `COc1ccc(C(=O)NCC(=O)N/N=C/c2ccc([N+](=O)[O-])s2)cc1OC`, the EC50 in test [11] is 504 nM (active); in test [12], > 60 µM (not active). Further, the AC50 in test [4] was 8.94 µM (active).

In the case of `O=c1c(-c2cc(F)cc(F)c2)nc2cncnc2n1Cc1ccc(F)cc1`, the AC50 in test [3] was 10 µM (inconclusive).

As to `C/C(CCN1CCCc2nc(C)c(C)cc21)=N\OC[C@@H](C)[C@H](OCc1ccccc1)C(C)C`, in test [3], the AC50 was 3.16 µM (inconclusive).

`COc1ccc(CCn2c(C(C)C)nc3c(c(=O)c4ccccc4n3C)c2=O)cc1`: the EC50 in test [2] was 7.87 µM (active).

Turning to `CCOC(=O)c1ccc(Nc2nc(C)nc3c2nnn3Cc2ccccc2)cc1`, the EC50 in test [8] is 13.4 µM (active); in test [9] it was > 150 µM (not active); in [10] it was > 150 µM (not active).

`CCC(C)Nc1nc(N)c([N+](=O)[O-])c(Nc2cc(OC)ccc2OC)n1` (configuration not stated): the EC50 was 10.7 µM (active) in [5]; 2.35 µM (active) in [8]; 12.8 µM (active) in [6]; 13.3 µM (active) in test [7]; > 150 µM (not active) in test [9]; 11.9 µM (active) in test [10].

Take `CCOC(=O)c1cccc(NC(=O)/C=C/c2ccc3c(c2)OCO3)c1`: the figures for the EC50 in [5] and in test [6] were 2.11 µM (active) and 0.361 µM (active), respectively.

As to `Cc1ccc(Cn2nnc(C(=O)Nc3cccc(C)c3C)c2N)cc1`, in test [2], the EC50 is 7.98 µM (active).

Take `CCOc1ccc(CNC(=O)CCCn2nc(C)c3c(C)n(-c4ccc(C)cc4)nc3c2=O)cc1`: the EC50 in [5] is 11.4 µM (active); in test [6], > 120 µM (not active); in test [7] it was 32.2 µM (active).

For the molecule `CCCCN(Cc1cc2cc(OC)ccc2nc1O)S(=O)(=O)c1ccc(C)cc1`, the figures for the EC50 in [5], in test [6] and in test [7] were 16 µM (active), 11.3 µM (active) and 11.1 µM (active), respectively.

`O=C(Oc1ccccc1)N1CCC2(CC1)CN(c1ccncc1)C2`: in test [3], the AC50 was 15.8 µM (inconclusive).

Take `Nc1nc2n(n1)C(c1cccc(Br)c1)CC(c1ccc(F)cc1)N2` (configuration not stated): the EC50 in test [2] was > 53 µM (inactive).

As to `O[Si@](CCCN1CCCCC1)(c1ccc(F)cc1)C1CCCCC1`, the AC50 in test [3] was 3.98 µM (inconclusive).

For the molecule `Cc1c(C)n(C(=O)CN2CCC(C)CC2)c2ccccc12`, the AC50 in test [3] was 17.8 µM (inconclusive).

As for `Cc1ccc(NNC(=O)C2CCC2)cc1C`, the EC50 in test [8], in test [9] and in test [10] was > 150 µM (not active) each time.

As for `O=S(=O)(c1ccccc1)N1CCC2(CCN(c3ncccn3)CC2)CC1`, the AC50 in test [3] is 31.6 µM (inconclusive).

For `O=C1C=C(c2ccc(F)cc2OCc2ccccc2)C[C@@H](c2ccc(Cl)cc2)C1`, the AC50 in [4] is 4.89 µM (active).
